Read-outs that look alike come from different tables or passages of the source.
System: C. parvum GCH1 oocysts
Experiment: Intact C. parvum oocyst assay on MDBKF5D2 cell monolayers, immunofluorescence
Type: cell-based
Settings: for inhibition at 2000 µg/mL / inhibition at 250 µg/mL / inhibition at 500 µg/mL / inhibition at 1000 µg/mL: Cryptosporidium parvum
Method: In vitro doses of drugs. Thiostrepton (Calbiochem) was dissolved in sterile complete Dulbecco's Modified Eagle Medium (DMEM) supplemented with dimethyl sulfoxide (DMSO) at 0.2% and tested at concentrations of 800, 400, 200, and 100, 10, 1 and 0.1 μg/ml.
(§1) Intact C. parvum oocyst asset 3.0×10^4 C. parvum GCH1 oocysts per well were incubated in the above-mentioned concentrations of drug at 37° C. (8% CO2) on confluent MDBKF5D2 cell monolayers in 96 well microtiter plates. The level of infection in each well was determined and analyzed by immunofluorescence assay at 48 hours, using C. parvum sporozoite rabbit anti-serum (0.1%) and fluorescein-conjugated goat anti-rabbit antibody (1.0%). Percent inhibition was calculated by subtracting the mean parasite/drug from the mean parasitelmedium, divided by the mean parasite/medium, all of which was multiplied by 100. The analysis was performed using MCID and an inverted microscope.
In vitro doses of drugs. Thiostrepton (Calbiochem) and Phavic (NTZ) were dissolved in sterile complete Dulbecco's Modified Eagle Medium (DMEM) supplemented with dimethyl sulfoxide (DMSO) at 0.2% and tested at concentrations of 800, 400, 200, and 100 μg/ml. NTZ was tested at concentrations of 100, 10, 1 and 0.1 μg/ml. Paromomycin (Sigma) was dissolved in DMEM and tested at concentrations of 2000, 1000, 500 and 250 μg/ml.
as §1, with “assay .” for “asset”, “plates. For some monolayers, the oocysts were incubated in DMEM on the cell monolayers for four hours, at which time the monolayers were washed and then drug was added to the wells.” for “plates.”, “parasite/medium,” for “parasitelmedium,”
In vitro doses of drugs. Thiostrepton (Calbiochem), Phavic (NTZ) were dissolved in sterile complete Dulbecco's Modified Eagle Medium (DMEM) supplemented with dimethyl sulfoxide (DMSO) at 0.2%. Thiostrepton was tested at a concentration of 800 μg/ml. NTZ was tested at a concentration of 10 μg/ml. Paromomycin was dissolved in DMEM and tested at 2000 μg/ml. Cell monolayers were infected and washed, followed by the addition of drug at time intervals of 0, 2, 4, 8 and 24 hours.
as §1, with “assay.” for “asset”, “analyze” for “analyzed”, “parasite/medium,” for “parasitelmedium,”

`NC[C@@H]1O[C@H](O[C@H]2[C@@H](O)[C@H](O[C@@H]3[C@@H](O)[C@H](N)C[C@H](N)[C@H]3O[C@H]3O[C@H](CO)[C@@H](O)[C@H](O)[C@H]3N)O[C@@H]2CO)[C@H](N)[C@@H](O)[C@@H]1O` [PRM, paromomycin] was tested, and the inhibition at 2000 µg/mL (0 h, Table 5, 2000 μg/ml, drug added at 0 hrs, read-out: Inhibition Percent) was 77.4%, the inhibition at 2000 µg/mL (0 h, Table 5, 2000 μg/ml, drug added at 0 hrs, read-out: Inhibition Score) was 71 to 90% and the inhibition at 2000 µg/mL (2 h, Table 5, 2000 μg/ml, drug added at 2 hrs, read-out: Inhibition Percent) was 89.4%. The inhibition at 2000 µg/mL (2 h, Table 5, 2000 μg/ml, drug added at 2 hrs, read-out: Inhibition Score) was 71 to 90%, the inhibition at 250 µg/mL (4 h, Table 4 Washed at 4 hours, 250 μg/ml, read-out: Inhibition Percent) was 59.3% and the inhibition at 250 µg/mL (4 h, Table 4 Washed at 4 hours, 250 μg/ml, read-out: Inhibition Score) was 56 to 70%. For the same molecule, the inhibition at 500 µg/mL (4 h, Table 4 Washed at 4 hours, 500 μg/ml, read-out: Inhibition Percent) was 69.2%, the inhibition at 500 µg/mL (4 h, Table 4 Washed at 4 hours, 500 μg/ml, read-out: Inhibition Score) was 56 to 70% and the inhibition at 1000 µg/mL (4 h, Table 4 Washed at 4 hours, 1000 μg/ml, read-out: Inhibition Percent) was 79.2%. The inhibition at 1000 µg/mL (4 h, Table 4 Washed at 4 hours, 1000 μg/ml, read-out: Inhibition Score) was 71 to 90%, the inhibition at 2000 µg/mL (4 h, Table 4 Washed at 4 hours, 2000 μg/ml, read-out: Inhibition Percent) was 82.5% and the inhibition at 2000 µg/mL (4 h, Table 4 Washed at 4 hours, 2000 μg/ml, read-out: Inhibition Score) was 71 to 90%. It also gave an inhibition at 2000 µg/mL (4 h, Table 5, 2000 μg/ml, drug added at 4 hrs, read-out: Inhibition Percent) of 79%, an inhibition at 2000 µg/mL (4 h, Table 5, 2000 μg/ml, drug added at 4 hrs, read-out: Inhibition Score) of 71 to 90% and an inhibition at 2000 µg/mL (8 h, Table 5, 2000 μg/ml, drug added at 8 hrs, read-out: Inhibition Percent) of 72.2%. The inhibition at 2000 µg/mL (8 h, Table 5, 2000 μg/ml, drug added at 8 hrs, read-out: Inhibition Score) was 71 to 90%, the inhibition at 2000 µg/mL (24 h, Table 5, 2000 μg/ml, drug added at 24 hrs, read-out: Inhibition Percent) was 27% and the inhibition at 2000 µg/mL (24 h, Table 5, 2000 μg/ml, drug added at 24 hrs, read-out: Inhibition Score) was 0 to 30%. The inhibition at 2000 µg/mL (Table 1, 2000 μg/ml, read-out: Inhibition Percent) was 73.2%, the inhibition at 2000 µg/mL (Table 1, 2000 μg/ml, read-out: Inhibition Score) was 71 to 90% and the inhibition at 2000 µg/mL (Table 2, 2 mg/ml, read-out: Inhibition Percent) was 69.7%. The inhibition at 2000 µg/mL (Table 2, 2 mg/ml, read-out: Inhibition Score) was 56 to 70%, the inhibition at 250 µg/mL (Table 3 Unwashed, 250 μg/ml, read-out: Inhibition Percent) was 68% and the inhibition at 250 µg/mL (Table 3 Unwashed, 250 μg/ml, read-out: Inhibition Score) was 56 to 70%. For the same molecule, the inhibition at 500 µg/mL (Table 3 Unwashed, 500 μg/ml, read-out: Inhibition Percent) was 71.9%, the inhibition at 500 µg/mL (Table 3 Unwashed, 500 μg/ml, read-out: Inhibition Score) was 71 to 90% and the inhibition at 1000 µg/mL (Table 3 Unwashed, 1000 μg/ml, read-out: Inhibition Percent) was 79.3%. The inhibition at 1000 µg/mL (Table 3 Unwashed, 1000 μg/ml, read-out: Inhibition Score) was 71 to 90%, the inhibition at 2000 µg/mL (Table 3 Unwashed, 2000 μg/ml, read-out: Inhibition Percent) was 81.9% and the inhibition at 2000 µg/mL (Table 3 Unwashed, 2000 μg/ml, read-out: Inhibition Score) was 71 to 90%. The inhibition at 2000 µg/mL (Table 6, 2 mg/ml, read-out: Inhibition Percent) was 76.3%, the inhibition at 2000 µg/mL (Table 6, 2 mg/ml, read-out: Inhibition Score) was 71 to 90% and the “Parasite Count” value (Table 1, 2000 μg/ml) was 278.06. The “Inhibition Percent” value (Table 2, 2 mg/ml) was 76.61%, the “Inhibition Score” value (Table 2, 2 mg/ml) was 3 (3: 71-90%) and the “Parasite Count” value (Table 2, 2 mg/ml) was 423.81. For the same molecule, the “Parasite Count” value (Table 2, 2 mg/ml, listed as PRM/DMSO) was 369.81, the “Parasite Count” value (Table 3 Unwashed, 250 μg/ml) was 453.94 and the “Parasite Count” value (Table 3 Unwashed, 500 μg/ml) was 398.31. The “Parasite Count” value (Table 3 Unwashed, 1000 μg/ml) was 293.56, the “Parasite Count” value (Table 3 Unwashed, 2000 μg/ml) was 256.38 and the “Parasite Count” value (Table 4 Washed at 4 hours, 250 μg/ml) was 492.13. The “Parasite Count” value (Table 4 Washed at 4 hours, 500 μg/ml) was 372.44, the “Parasite Count” value (Table 4 Washed at 4 hours, 1000 μg/ml) was 251.88 and the “Parasite Count” value (Table 4 Washed at 4 hours, 2000 μg/ml) was 211.38. For the same molecule, the “Parasite Count” value (Table 5, 2000 μg/ml, drug added at 0 hrs) was 287.63, the “Parasite Count” value (Table 5, 2000 μg/ml, drug added at 2 hrs) was 134.94 and the “Parasite Count” value (Table 5, 2000 μg/ml, drug added at 4 hrs) was 267.25. The “Parasite Count” value (Table 5, 2000 μg/ml, drug added at 8 hrs) was 354.06, the “Parasite Count” value (Table 5, 2000 μg/ml, drug added at 24 hrs) was 929.19 and the “Parasite Count” value (Table 6, 2 mg/ml) was 325.75. For the same molecule, the “activity when drug is added 24 hours after infection” value (intracellular stages only) was “activity drops”.

Source: patent publication US6313090A, “Methods for treating parasitic infection using thiopeptides” (The United States of America as represented by the …, priority 2000, dated 2001)
